Assay results reported in PMC12254070, “Antimicrobial Peptides Design Using Deep Learning and Rational Modifications: Activity in Bacteria, Candida albicans, and Cancer Cells” (Current Microbiology, 2025).
Like-named read-outs stand apart in the source and are kept apart here. Ends that are not written are not given here.

What was measured:
[1] = test system: Klebsiella quasipneumoniae ATCC 700603; assay type: cell-based
Protocol: (§1) The antimicrobial activity of the peptides was evaluated with S. aureus ATCC 25923, P. aeruginosa ATCC 27853, Escherichia coli ATCC 25922, Klebsiella quasipneumoniae ATCC 700603, and the yeast C. albicans ATCC 10231. The minimum inhibitory concentration (MIC) was determined following the protocol described by Wiegand et al.. Briefly, bacteria were grown overnight in Mueller–Hinton (MH) medium at 37 °C and 90 rpm, while C. albicans was grown at 30 °C in MH supplemented with 30% YPD (yeast extract, peptone, dextrose). The concentration of bacteria and C. albicans was adjusted to 10^6 CFU/mL. […] Microorganism growth was measured hourly at 600 nm for 24 h, with a 10-s shaking cycle, on a Multiskan Go microplate reader (Thermo Scientific). The experiments with bacteria were incubated at 37 °C, whereas those with C. albicans were incubated at 30 °C. Each peptide was evaluated by duplicate on 2 different days. The MIC was estimated as the minimum peptide concentration at which the microorganism had no growth. […] In all assays, untreated culture medium without peptides was included as a negative control to account for basal microbial growth. All assays were performed in two independent experiments, each conducted with two technical replicates (n = 4 per condition).

[2] = test system: Escherichia coli ATCC 25922; assay type: cell-based
Protocol: as §1

[3] = test system: C. albicans ATCC 10231; assay type: cell-based, Candida albicans
Protocol: as §1

[4] = test system: human red blood cells; conditions: red cells of human, 3 h
[5] = test system: S. aureus ATCC 25923; assay type: cell-based, Staphylococcus aureus
Protocol: as §1

[6] = test system: human lung adenocarcinoma (A549) cells; assay type: cell-based
Protocol: (§2) The methodology proposed by Zhang et al. […] After 24 h of incubation, the wells were washed twice with PBS, and 10 μL of MTT solution was added to each well at a final concentration of 0.5 mg/mL, and the cell cultures were incubated for 4 h at 37 °C. The solution was removed from each well, and the formazan crystals were dissolved with 100 μL of Sodium Dodecyl Sulfate (0.01 M). After 16 h, absorbance was measured with a MultiSkan Go microplate reader at 570 nm. The untreated wells were used as a negative control, while wells treated with DMSO were used as a positive control for cytotoxicity. The percent viability was determined using the following equation. %viability=[…]-×100% where ABSM is the average absorbance with the treatment and ABSC is the absorbance obtained in the controls (positive and negative).

[7] = test system: human breast adenocarcinoma (MCF-7) cells; assay type: cell-based
Protocol: as §2

[8] = test system: P. aeruginosa ATCC 27853; assay type: cell-based, Pseudomonas aeruginosa
Protocol: as §1

[9] = test system: human red blood cells; experiment: Hemolysis assay; conditions: human erythrocytes 1:10 in 0.9% PBS, 50 µM peptide, 37 °C, 3 h, OD 545 nm, 0.1% Triton X-100 = positive control, three replicate wells
[10] = Mueller–Hinton, 10^6 CFU/mL, 37 °C, 24 h, OD 600 nm, minimum concentration with no growth, n = 4
[11] = minimum bactericidal concentration, value in brackets

Sequence	IC50 ([1]; ATCC 700603, 24 h)	MBC K.q ([1]; ATCC 700603, 24 h)	MIC K.q ([1]; ATCC 700603, 24 h)	IC50 ([2]; ATCC 25922, 24 h)	MBC E.c ([2]; ATCC 25922, 24 h)	MIC E.c ([2]; ATCC 25922, 24 h)	IC50 ([3]; ATCC 10231, 24 h)	MFC C.a ([3]; ATCC 10231, 24 h)	% Hemolysis at 50 µM [4]	IC50 ([5]; ATCC 25923, 24 h)	MBC S.a ([5]; ATCC 25923, 24 h)	MIC S.a ([5]; ATCC 25923, 24 h)	IC50 ([6]; 24 h)	IC50 ([7]; 24 h)	IC50 ([8]; ATCC 27853, 24 h)	MBC P.a ([8]; ATCC 27853, 24 h)	MIC P.a ([8]; ATCC 27853, 24 h)	MHC (minimum hemolytic concentration) [4]	other results
AGLARKWLKLPIGVLAR [OrP1]	22.4 µM	> 99.3 µM	49.7 µM	5.8 µM	12.4 µM	12.4 µM	14.8 µM	49.7 µM	1.2%	24.2 µM	> 99.3 (> 99.3) µM	> 99.3 (> 99.3) µM	21.7 µM	9.1 µM	14.8 µM	99.3 µM	49.7 µM		
IKPVVKGIKGVKNFFK [VeP2]	30.7 µM	> 103 µM	103 µM	22.8 µM	103 µM	103 µM	23.7 µM	> 102.9 µM	3.0%	53.2 µM	> 102.9 µM	51.5 µM	69.6 µM	34.2 µM	21.9 µM	102.9 µM	51.5 µM		
FKKLLKFLKWLF [VeP1]	5.9 µM	28.3 µM	28.3 µM	5.8 µM	14.1 µM		31.7 µM	> 113.1 µM		2.1 µM	3.5 µM				31.7 µM	56.6 µM	56.6 µM	4.25 µM	
IKKWGKVLKKLI [VeP1M]																			% Hemolysis at 50 µM [9]: 0.0%; MIC K.q [1, 10]: 30.4 µM; IC50 ([1]; half inhibitory concentration against the microorganism, Table S4, dose-response curves, read-out: IC50 K.q.): 6.8 µM; MBC K.q [1, 11]: 30.4 µM; MIC E.c [2, 10]: 7.6 µM; IC50 ([2]; half inhibitory concentration against the microorganism, Table S4, dose-response curves, read-out: IC50 E.c.): 3.7 µM; MBC E.c [2, 11]: 7.6 µM; MIC C.a ([3]; MH + 30% YPD, 10^6 CFU/mL, 30 °C, 24 h, OD 600 nm, minimum concentration with no growth, n = 4): 15.2 µM; IC50 ([3]; half inhibitory concentration against the microorganism, Table S4, dose-response curves, read-out: IC50 C.a.): 10 µM; MFC C.a ([3]; minimum fungicide concentration, value in brackets): 30.3 µM; MIC S.a [5, 10]: 15.2 µM; IC50 ([5]; half inhibitory concentration against the microorganism, Table S4, dose-response curves, read-out: IC50 S.a.): 8.3 µM; MBC S.a [5, 11]: 15.2 µM; IC50 ([6]; MTT, 24 h incubation with peptide, triplicate, non-linear regression, read-out: IC50 A549): 35 µM; IC50 ([7]; MTT, 24 h incubation with peptide, triplicate, non-linear regression, read-out: IC50 MCF-7): 13.6 µM; MIC P.a [8, 10]: 3.8 µM; IC50 ([8]; half inhibitory concentration against the microorganism, Table S4, dose-response curves, read-out: IC50 P.a.): 10 µM; MBC P.a [8, 11]: 3.8 µM
AIVKKIGKIWKNFIK [VeP2M]	9.2 µM	62.6 µM	31.3 µM	1.6 µM	3.9 µM	3.9 µM	5.9 µM	31.3 µM	7.1%	7.9 µM	31.3 µM	15.6 µM	34.9 µM	21.9 µM	5.9 µM	15.6 µM	7.8 µM	68.64 µM	
LKRLAKLLKKWIKA [OrP4M]	3.3 µM	14.1 µM	7.1 µM	2.2 µM	3.5 µM	3.5 µM	9.4 µM	28.2 µM		3.4 µM	14.1 µM	7.1 µM		< 6.25 µM	9.4 µM	3.5 µM	3.5 µM	59.91 µM	
AKLLGKLLRKKIGVL [OrP4]	29 µM	> 125.2 (> 125.2) µM		14.8 µM	62.6 µM	31.3 µM	23.3 µM	125.3 µM			> 125.2 (> 125.2) µM	> 125.2 (> 125.2) µM		> 100 µM	23.3 µM	31.3 µM	15.7 µM	28.98 µM	
IGKVWKVAKKLIKI [OrP9M]	3.8 µM	15.6 µM	15.6 µM	3.2 µM	7.8 µM	7.8 µM	4.9 µM			4.5 µM	31.1 µM	15.6 µM	25.1 µM	< 6.25 µM	4.9 µM	1.9 µM			
LAKRWLKLLGKLAK [OrP1M]	4.5 µM	15.8 µM	15.8 µM	1.5 µM	1.9 µM		10.1 µM	31.6 µM		2.3 µM	3.9 µM	3.9 µM	21.1 µM	< 6.25 µM	10.1 µM	3.9 µM	3.9 µM		
AGLKKLAKKLGKVVL [OrP3]	6 µM	27.8 µM	13.9 µM	1.6 µM	3.5 µM	3.5 µM	9.6 µM	27.8 µM	0.0%	10.1 µM	27.8 µM	27.8 µM	33.1 µM	23.2 µM	9.6 µM	13.9 µM	13.9 µM		
FKLFCVAKRLPKKVL [OrP9]	93 µM	> 119.2 (> 119.2) µM	> 119.2 (> 119.2) µM	4.9 µM	7.5 µM	7.5 µM	44.1 µM	> 119.2 (> 119.2) µM			> 119.2 (> 119.2) µM	> 119.2 (> 119.2) µM		> 100 µM	44.1 µM	29.8 µM	14.9 µM		
